The values that follow come from DBAASP.

SMILES strings stand for the structures. In brackets after ≈: the same amount, converted by molar mass. Several values for one entry are separate records, joined by “and”; a condition that tells them apart may be missing. Equal entries are not always repeated.

Test systems include Candida albicans 820; Escherichia coli ML-35p; Staphylococcus aureus; Bacillus thuringiensis; Proteus mirabilis; Listeria grayi DSM 20601; Escherichia coli D31.
Common to all, as to assay: ≥ marks a high value that may be exact or a test limit, other limits are often not marked, values filed in µg/mL are converted to µM
Assay [1] concerns Escherichia coli DH5alpha.
The test system of assay [2] is Staphylococcus aureus NBRC 13276.
The test system of assay [3] is Pseudomonas aeruginosa NBRC 13275.
Assay [4] deals with Staphylococcus aureus ATCC 33591.
Assay [5] concerns Listeria monocytogenes EGD.
Assay [6] deals with Streptococcus mutans UA159.
The test system of assay [7] is Pseudomonas aeruginosa PAK.
Assay [8] concerns Streptococcus mitis ATCC 903.
For assay [9], the system named is Streptococcus sanguinis NY101.
Assay [10] has as its system Streptococcus gordonii Challis DL1.
Assay [11] has as its system Pseudomonas aeruginosa ATCC 15442.
Assay [12] has as its system Enterobacter cloacae ATCC 23355.
For assay [13], the system named is Bacillus subtilis CCT 2471.
Assay [14] deals with Escherichia coli ATCC 25922.
Assay [15] relates to Escherichia coli CCT 1371.
For assay [16], the system named is Staphylococcus aureus ATCC 25923.
Assay [17] deals with Staphylococcus saprophyticus.
In assay [18] the test system is Staphylococcus aureus ATCC 6538.
The test system of assay [19] is Staphylococcus epidermidis.
The test system of assay [20] is Latilactobacillus sakei NCDO 2714.
For assay [21], the system named is Weissella viridescens NCDO 1655.
Assay [22] deals with Pediococcus acidilactici CH.
Assay [23] deals with Lacticaseibacillus casei subsp. casei NCDO 161.
For assay [24], the system named is Carnobacterium maltaromaticum UI49.
Assay [25] concerns Pediococcus pentosaceus Pac1.0.
The subject of assay [26] is Pediococcus pentosaceus NCDO 990.
The test system of assay [27] is Lactiplantibacillus plantarum UI50.
The subject of assay [28] is Latilactobacillus curvatus 89.
Assay [29] relates to Lacticaseibacillus casei NCDO 2713.
Assay [30] has as its system Lactiplantibacillus plantarum 965.
In assay [31] the test system is Latilactobacillus sakei 706.
The test system of assay [32] is Listeria monocytogenes DSM 20600.
Assay [33] has as its system Micrococcus luteus DSM 20030.
Assay [34] relates to Listeria fleischmannii DSM 24998.

Consider `CC[C@H](C)[C@H](NC(=O)CNC(C)=O)C(=O)NCC(=O)N[C@@H](CCCCN)C(=O)N[C@@H](Cc1ccccc1)C(=O)N[C@@H](CC(C)C)C(=O)N[C@@H](Cc1cnc[nH]1)C(=O)N[C@@H](CO)C(=O)N[C@@H](C)C(=O)N[C@@H](CCCCN)C(=O)N[C@@H](CCCCN)C(=O)N[C@@H](Cc1ccccc1)C(=O)NCC(=O)N[C@@H](CCCCN)C(=O)N[C@@H](C)C(=O)N[C@@H](Cc1ccccc1)C(=O)N[C@H](C(=O)NCC(=O)N[C@@H](CCC(=O)O)C(=O)N[C@H](C(=O)N[C@@H](CCSC)C(=O)N[C@@H](CC(N)=O)C(=O)N[C@@H](CO)C(N)=O)[C@@H](C)CC)C(C)C` [GIGKFLHSAKKFGKAFVGEIMNS], for which the MIC in assay [1] is no less than 50 µM; in assay [2], no less than 200 µM; in assay [3] it was 25 µM (≈ 62.7 µg/mL).
In the case of `CC[C@H](C)[C@@H]1NC(=O)[C@H](CC(N)=O)NC(=O)[C@@H]2CSSC[C@@H]3NC(=O)[C@H](CCCN=C(N)N)NC(=O)[C@@H](NC(=O)[C@@H](NC(=O)[C@@H](N)CCCN=C(N)N)[C@@H](C)O)CSSC[C@@H](C(=O)N[C@@H](CCCN=C(N)N)C(=O)O)NC(=O)[C@H](CSSC[C@H](NC(=O)[C@H](CCCN=C(N)N)NC(=O)CNC(=O)[C@H](CC(C)C)NC(=O)[C@H](CCCN=C(N)N)NC3=O)C(=O)N[C@@H](CO)C(=O)N[C@@H](CCCN=C(N)N)C(=O)N[C@@H](CCCN=C(N)N)C(=O)N[C@@H](CCC(=O)O)C(=O)N[C@@H](CO)C(=O)N[C@@H](Cc3ccc(O)cc3)C(=O)N[C@@H](CO)C(=O)NCC(=O)N[C@@H](CO)C(=O)N2)NC(=O)[C@H](CC(C)C)NC(=O)[C@H](CO)NC(=O)[C@H](Cc2ccc(O)cc2)NC(=O)[C@H]([C@@H](C)CC)NC(=O)[C@H](CCCN=C(N)N)NC(=O)CNC(=O)[C@H](CC(N)=O)NC1=O` [RTCRCRLGRCSRRESYSGSCNINGRIYSLCCR], the minimal inhibitory concentration (MIC) in assay [4] is 4.5 µM and 7.8 µM; against Candida albicans 820 it was 2.6 µM and 3.8 µM; in assay [5], 1.2 µM and 1.9 µM; against Escherichia coli ML-35p, 2 µM and 3.1 µM.
Turning to `CC[C@H](C)[C@H](NC(=O)CNC(=O)CNC(=O)CNC(=O)[C@H](Cc1ccccc1)NC(=O)[C@H](CCCN=C(N)N)NC(=O)[C@H](Cc1cnc[nH]1)NC(=O)[C@@H](NC(=O)[C@H](Cc1ccccc1)NC(=O)[C@H](Cc1cnc[nH]1)NC(=O)[C@H](CCCCN)NC(=O)[C@@H](NC(=O)[C@@H](N)Cc1ccccc1)[C@@H](C)CC)[C@@H](C)CC)C(=O)N[C@@H](CCCCN)C(=O)N[C@@H](CCC(N)=O)C(=O)N[C@@H](CC(C)C)C(=O)N[C@@H](CC(C)C)C(=O)N[C@@H](Cc1cnc[nH]1)C(=O)N[C@@H](Cc1ccccc1)C(=O)N[C@@H](Cc1ccccc1)C(=O)N[C@@H](CCC(N)=O)C(=O)N[C@@H](CCCN=C(N)N)C(=O)N[C@@H](Cc1ccccc1)C(N)=O` [FIKHFIHRFGGGIKQLLHFFQRF], the minimum inhibitory concentration (MIC) in [6] is 2.78 µM (≈ 8 µg/mL); in [7], no less than 43.5 µM; in assay [8] it was 5.57 µM (≈ 16 µg/mL); in [9] it was 11.1 µM (≈ 32 µg/mL); against Staphylococcus aureus it was 21.7 µM (≈ 62.5 µg/mL); in assay [10], 11.1 µM (≈ 32 µg/mL).
On to `CC[C@H](C)[C@H](NC(=O)CNC(=O)[C@H](CCCCN)NC(=O)[C@H](CC(C)C)NC(=O)[C@H](CC(N)=O)NC(=O)[C@@H](N)CC(C)C)C(=O)N[C@@H](Cc1ccccc1)C(=O)N[C@@H](CCCCN)C(=O)N[C@@H](CCCCN)C(=O)N[C@H](C(=O)N[C@@H](C)C(=O)N[C@@H](CO)C(=O)N[C@@H](CC(C)C)C(=O)N[C@@H](CC(C)C)C(=O)N[C@H](C(=O)O)[C@@H](C)O)C(C)C` [LNLKGIFKKVASLLT], for which the MIC was 30 µM (≈ 49.4 µg/mL) in assay [11]; no less than 60 µM in assay [12]; no less than 60 µM in [13]; 6 µM (≈ 9.87 µg/mL) in [14]; no less than 60 µM against Bacillus thuringiensis; no less than 60 µM in the assay with Proteus mirabilis. For the same molecule, the MIC in [15] was 6 µM (≈ 9.87 µg/mL); in [16], 6 µM (≈ 9.87 µg/mL); in assay [17] it was 6 µM (≈ 9.87 µg/mL); in assay [18], greater than 60 µM; in assay [19], no less than 60 µM.
As to `CC[C@H](C)[C@H](NC(=O)[C@H](C)NC(=O)[C@@H](NC(=O)[C@H](C)NC(=O)CNC(=O)[C@H](CCSC)NC(=O)[C@H](CCC(N)=O)NC(=O)[C@H](CC(C)C)NC(=O)[C@H](CO)NC(=O)[C@H](Cc1ccc(O)cc1)NC(=O)[C@H](C)NC(=O)[C@H](CO)NC(=O)[C@H](CO)NC(=O)[C@@H](N)CCCCN)[C@@H](C)O)C(=O)N[C@@H](CCCCN)C(=O)N[C@@H](CCC(N)=O)C(=O)N[C@H](C(=O)N[C@@H](CCCCN)C(=O)N[C@@H](CCCCN)C(=O)N[C@@H](CC(C)C)C(=O)N[C@@H](Cc1ccccc1)C(=O)N[C@@H](CCCCN)C(=O)N[C@@H](CCCCN)C(=O)N[C@@H](Cc1c[nH]c2ccccc12)C(=O)NCC(=O)N[C@@H](Cc1c[nH]c2ccccc12)C(=O)O)C(C)C` [KSSAYSLQMGATAIKQVKKLFKKWGW], the MIC in [20] came out at 0.06 µM (≈ 0.179 µg/mL); in assay [21], 0.02 µM (≈ 0.0597 µg/mL); in [22], 0.5 µM (≈ 1.49 µg/mL); in assay [23], 0.25 µM (≈ 0.746 µg/mL); in [24], 6 µM (≈ 17.9 µg/mL); in [25], 0.1 µM (≈ 0.299 µg/mL). In addition, the MIC in [26] came to 6 µM (≈ 17.9 µg/mL); in assay [27], 6 µM (≈ 17.9 µg/mL); in assay [28], 0.5 µM (≈ 1.49 µg/mL); in assay [29] it was 6 µM (≈ 17.9 µg/mL); in assay [30] it was 0.3 µM (≈ 0.896 µg/mL); in assay [31] it was 0.5 µM (≈ 1.49 µg/mL).
In the case of `CC[C@H](C)[C@H](N)C(=O)N[C@@H](Cc1ccccc1)C(=O)N[C@@H](CCCCN)C(=O)N[C@@H](C)C(=O)N[C@H](C(=O)N[C@@H](Cc1c[nH]c2ccccc12)C(=O)N[C@@H](CO)C(=O)NCC(=O)N[C@H](C(=O)N[C@@H](CCCCN)C(=O)N[C@@H](CO)C(=O)N[C@@H](CC(C)C)C(=O)N[C@@H](Cc1ccccc1)C(=O)O)[C@@H](C)CC)[C@@H](C)CC` [IFKAIWSGIKSLF], the MIC in the assay with Listeria grayi DSM 20601 came to 2 µM (≈ 3.02 µg/mL); in assay [32], 2 µM (≈ 3.02 µg/mL); in [33], 2 µM (≈ 3.02 µg/mL); in [34], 2 µM (≈ 3.02 µg/mL); in the assay on Escherichia coli D31 it was 15 µM (≈ 22.6 µg/mL).
